# From patent US10406124B2, “Method of treatment of gynecological cancer with anti-RAGE antibodies” (Swansea University, priority 2014, dated 2019)
# Where two headings read alike, the source gives them in different places. Non-standard residues stand in square brackets, D forms with d. Residues, ends and D or L forms follow the SMILES beside them. *: point of attachment. Dolaproine = CO[C@@H]([C@@H]1CCCN1)[C@@H](C)C(=O)O; Dil = CC[C@H](C)[C@H](NC)[C@@H](CC(=O)O)OC; X1 = C[C@@H](N*)[C@@H](O)c1ccccc1; NMeV = CN[C@H](C(=O)O)C(C)C
# Key:
# TOV112D cells = experiment: Cell viability / cytotoxicity of RAGE ADCs in TOV112D ovarian cancer cells; type: cell-based, human; settings: 24 h, free cytotoxin
# Procedure: (§1) Endometrial (Ishikawa) or ovarian (TOV112D) cancer cells were cultured in 96-well plates and treated with an extended concentration range of MMAE, MMAF, RAGE MMAE or RAGE MMAF for 24 or 48 h. Data was analysed by non-linear regression and IC50 concentrations determined for each treatment.
# Data are presented as box plots showing the median (line), 25th and 75th percentiles (box) and 10th and 90th percentile (whiskers), n=4. Data were analysed by ANOVA and Dunnett's pairwise multiple comparison t-test.
# The linkers used in Examples 3 & 4 were directly compared. […] After treatment, cell viability (FIG. 17) was determined by a fluorescence-based cell viability assay (Apotox Glo Triplex assay, Promega) according to the manufacturer's instructions. […] Data were analysed by ANOVA and Dunnett's pairwise multiple comparison t-test. […]
# Comparisons of the AA4, HG6 and DF6 ADCs to the SNIPER ADC were made within normal ovarian (HOSEpic) and ovarian cancer (TOV112D and SKOV3) cells, and normal endometrial (Healthy) and endometrial cancer (HEC1A, HEC1B and Ishikawa) cells. Cells were treated for 96 h with 5 μg/ml of each of the ADCs, and cell health monitored as previously described. […] Data are presented as mean (SEM), and were analysed by ANOVA and Dunnett's pairwise multiple comparison t-test.
# Ishikawa cells = experiment: Cell viability / cytotoxicity of RAGE ADCs in Ishikawa endometrial cancer cells; type: cell-based; settings: Homo sapiens, read-out: IC50 of drug alone
# Procedure: as §1
# After treatment, cell viability in both cell lines (FIG. 13), and cell apoptosis in Ishikawa cells (caspase activation; FIG. 14) were determined by a fluorescence-based cell viability assay (Apotox Glo Triplex assay, Promega) according to the manufacturer's instructions. Data are presented as box plots showing the median (line), 25th and 75th percentiles (box) and 10th and 90th percentile (whiskers), n=4. Data were analysed by ANOVA and Dunnett's pairwise multiple comparison t-test. […]
# RAGE = RAGE protein expression by immunohistochemistry in endometrial biopsies of patients taking tamoxifen; type: in vivo, human
# Procedure: RAGE protein expression was measured by Immunohistochemistry in endometrial biopsies from patients diagnosed with endometrial hyperplasia, Type I or Type II endometrial cancer (EC), postmenopausal controls as well as breast cancer patients taking tamoxifen as part of their treatment that have developed, or not, endometrial cancer. 138 patients were grouped as follows: PM (n=25, median=0.2), Hyperplasia (n=21, median=5.5), type I EC (n=18, median=1.5), type II EC (n=17, median=2), TX no EC (n=19, median=4), type I EC plus TX (n=21, median=4) and type II EC plus TX (n=17, median=0.2).
# IHC samples were scored blind by three independent observers. Values shown are median IHC scores and statistical analysis was performed using a Mann-Whitney test *p<0.05, **p<0.01, ***p<0.001, compared to PM control.
SMILES,IC50 of drug alone (TOV112D cells),IC50 (Ishikawa cells; 24 h) [nM],IC50 (Ishikawa cells; 48 h) [nM],"RAGE expression, median IHC score (RAGE; breast cancer patients taking tamoxifen, no endometrial cancer (TX no EC), n=19)",effect on endometrial RAGE expression (RAGE; endometrium from EC patients taking vs not taking tamoxifen),"RAGE expression, median IHC score (RAGE; type I EC plus TX, n=21)","RAGE expression, median IHC score (RAGE; type II EC plus TX, n=17)"
"CC[C@H](C)[C@@H]([C@@H](CC(=O)N1CCC[C@H]1[C@H](OC)[C@@H](C)C(=O)N[C@@H](Cc1ccccc1)C(=O)O)OC)N(C)C(=O)[C@@H](NC(=O)[C@@H](NC)C(C)C)C(C)C [MMAF, (S)-2-((2R,3R)-3-((S)-1-((3R,4S,5S)-4-((S)—N,3-dimethyl-2-((S)-3-methyl-2-(methylamino)butanamido)butanamido)-3-methoxy-5-methylheptanoyl)pyrrolidin-2-yl)-3-methoxy-2-methylpropanamido)-3-phenylpropanoic acid] (H-[NMeV]V[Dil][Dolaproine]F-OH)",greater than the top concentration tested,1300,630,,,,
"CC[C@H](C)[C@@H]([C@@H](CC(=O)N1CCC[C@H]1[C@H](OC)[C@@H](C)C(=O)N[C@H](C)[C@@H](O)c1ccccc1)OC)N(C)C(=O)[C@@H](NC(=O)[C@@H](NC)C(C)C)C(C)C [MMAE, (S)—N-((3R,4S,5S)-1-((S)-2-((1R,2R)-3-(((1S,2R)-1-hydroxy-1-phenylpropan-2-yl)amino)-1-methoxy-2-methyl-3-oxopropyl)pyrrolidin-1-yl)-3-methoxy-5-methyl-1-oxoheptan-4-yl)-N,3-dimethyl-2-((S)-3-methyl-2-(methylamino)butanamido)butanamide] (H-[NMeV]V[Dil][Dolaproine]-X1)",greater than the top concentration tested,1400,460,,,,
CC/C(=C(\c1ccccc1)c1ccc(OCCN(C)C)cc1)c1ccccc1 [tamoxifen],,,,4,upregulation of RAGE,4,0.2
